Results: patent publication US20240254093A1, “GPR35 Agonist Compounds” (Heptares Therapeutics Limited, priority 2021, published 2024)
Read-outs that look alike come from different tables or passages of the source.

What was measured:
GPR35 [1] = target: T1, GPR35 (Homo sapiens (Human), UniProt Q9HC97); conditions: reported in US20130316985; read-out: EC50 (weak agonist activity at GPR35); cited from earlier work
Target sequence in this assay (Q9HC97 whole entry, species assumed): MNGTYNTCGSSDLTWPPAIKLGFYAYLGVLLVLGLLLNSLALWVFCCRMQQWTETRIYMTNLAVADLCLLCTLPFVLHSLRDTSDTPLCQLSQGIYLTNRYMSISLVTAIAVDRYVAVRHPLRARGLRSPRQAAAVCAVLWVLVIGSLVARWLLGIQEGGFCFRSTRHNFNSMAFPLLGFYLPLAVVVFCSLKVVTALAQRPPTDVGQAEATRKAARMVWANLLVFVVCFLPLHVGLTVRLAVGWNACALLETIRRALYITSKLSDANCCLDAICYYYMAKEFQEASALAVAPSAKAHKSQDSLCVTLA

GPR35 [2] = target: T1, GPR35; test: selectivity for GPR35 / off-target effects
Target sequence in this assay (Q9HC97 whole entry, species assumed): as above

[3] = system: PGE2-induced fluid secretion; test: PGE2-induced fluid secretion; format: in vivo; conditions: preclinical species
Human GPR35a isoform = Human GPR35a isoform (Homo sapiens (Human), UniProt Q9HC97); test: Human GPR35a isoform binding (radioligand, HEK293f membranes); conditions: HEKf cell membranes overexpressing GPR35a isoform; read-out: Human GPR35 Ki
Chain of Human GPR35a isoform (Q9HC97 whole entry, canonical isoform): as the sequence (Q9HC97 whole entry, species assumed) above
Method: Overexpression of Human GPR35a Baculovirus in HEK293f cells at a cell density of 2.5×10^6 cells/mL and a multiplicity of infection of 2.5 over 24 h in Pro293 (Lonza)+5% FBS, 1% Glutamax and 0.4% Pen/Strep. Cells harvested and centrifuged at 2500 RPM for 10 mins at 4° C. The supernatant was then poured off and the pellet stored at −80° C. The pellet was defrosted and re-suspended in 15 mL of homogenising buffer (20 mM HEPES, 10 mM EDTA, pH 7.4). Then homogenised in mechanical homogeniser (VMR) for 10 seconds. The membrane was centrifuged in centrifuge tubes at 40,000 g for 15 mins at 4° C. The supernatant was poured away and re-suspended in 15 mL of homogenising buffer. Homogenised for 20 seconds. The membrane was centrifuged at 40,000 g for 45 mins at 4° C. The membrane was re-suspended in 3 mL of storage buffer (20 mM HEPES, 0.1 mM EDTA, pH 7.4) mixing well. The resulting membranes were then stored at −80°. GPR35 cell membrane homogenates were re-suspended in the binding buffer (50 mM TRIS+10 mM MgCl2 pH 7.4) to a final assay concentration of 5 ug/well. Test compounds were diluted in dimethylsulphoxide (DMSO (Sigma Aldrich, UK)), to form a 10 point ½ log concentration curve. Test compounds were added per plate, followed by 7 nM 3H-27966. 0.1 uM FAC Lodoxamide was added in order to allow non-specific binding to be calculated. Finally, membrane was added to each well on the plate. After 60 min incubation at room temperature, membranes were filtered onto a unifilter, 96-well white microplate with bonded GF/B filter, pre-soaked in ddH20, with a TomTec cell harvester, and washed 5 times with distilled water. Plates were dried prior to 50 ul/well scintillant added, sealed and radioactivity measured using a MicroBeta analyser. IC50 values were derived from the inhibition curve and affinity constant (Ki) values were calculated using the Cheng-Prussoff equation, where; pKi=−log 10 Ki.
(§1) • Ki values derived from concentration response analysis in HEKf cell membranes overexpressing GPR35a isoform. EC50 values derived from concentration response analysis in HT-29 cell line endogenously expressing human GPR35.

LPS challenge = test: acute rat and mouse LPS challenge; format: in vivo
TNBS visceral pain = test: TNBS mouse visceral pain model; format: in vivo
GPR35 [4] = target: T1, GPR35; test: Label-free DMR functional assay in HT-29 cells; format: cell-based; conditions: for EC50: HT-29 cell line endogenously expressing human GPR35, DMR normalised to Lodoxamide
Method: HT-29 cells (ATCC HTB-38) kept in continuous culture in McCoys (Thermo 16600082) supplemented with 10% FBS. Day prior to assay, cells harvested with TrypLE (Gibco12604-013), and plated at 20 k/well in culture media in a total volume of 50 ul in Corning EPIC 384 well plates (5040) overnight 37° C. 5% CO2. On the day of assay, cell media was removed and replaced with assay buffer (HBSS+20 mM HEPES pH7.4) and reincubated for 1 h. Compounds were prepared in 100% DMSO in ECHO LDV 384 source plates. Cell plates were read on an EPIC plate reader at room temperature for 15 mins, read paused, and cell plate added to LabCyte ECHO 550 for addition of 50 nl per well compound by acoustic transfer. Plates were immediately placed back into the EPIC reader, read unpaused and Dynamic Mass Redistribution measured for 60 minutes. Raw data was analysed by EPIC Analyser software and max peak taken per concentration to enable EC50 determination. All raw DMR data was normalised to Lodoxamide and buffer corrected.
as §1
Target sequence in this assay (Q9HC97 whole entry): as the sequence (Q9HC97 whole entry, species assumed) above

[5] = system: major human CYPs, including CYP3A4; test: drug interaction potential for major human CYPs; format: in vitro ADME
[6] = system: indomethacin ileitis and barrier permeability; test: indomethacin ileitis and barrier permeability; format: in vivo; conditions: preclinical species
GPR35 [7] = target: T1, GPR35; conditions: human vs rat GPR35; cited from earlier work
Target sequence in this assay (Q9HC97 whole entry): as the sequence (Q9HC97 whole entry, species assumed) above

Nc1ccc(O)c(C(=O)O)c1 [5-aminosalicylic acid]
EC50 (GPR35 [1]): ~3000 nM

O=C(NCc1ccccc1)c1ccc(-c2cc(Nc3c(O)c(=O)c3=O)cc(-c3nn[nH]n3)c2)cc1 [Example 5, N-benzyl-3′-((2-hydroxy-3,4-dioxocyclobut-1-en-1-yl)amino)-5′-(1H-tetrazol-5-yl)-[1,1′-biphenyl]-4-carboxamide]
off-target effects (GPR35 [2]): no off-target effects have been observed | selectivity for GPR35 (GPR35 [2]): strong selectivity | pharmacology in PGE2-induced fluid secretion [3]: showed pharmacology | Ki (Human GPR35a isoform): 0.08 nM | pharmacology in acute rat and mouse LPS challenge (LPS challenge): showed pharmacology | pharmacology in TNBS mouse visceral pain model (TNBS visceral pain): showed pharmacology | EC50 (GPR35 [4]): 0.52 nM | functional potency for GPR35 higher than Cromolyn (GPR35 [4]; relative to Cromolyn): about 500 times | drug interaction potential for the major human CYPs [5]: very low drug interaction potential | pharmacology in indomethacin ileitis and barrier permeability [6]: showed pharmacology

O=c1c(O)c(Nc2cc(-c3nn[nH]n3)cc(C3CCCCC3)c2)c1=O [Example 28, 3-((3-cyclohexyl-5-(1H-tetrazol-5-yl)phenyl)amino)-4-hydroxycyclobut-3-ene-1,2-dione]
Ki (Human GPR35a isoform): 12.5 nM | EC50 (GPR35 [4]): 6.65 nM

O=c1c(O)c(Nc2cc(-c3ccnnc3)cc(-c3nn[nH]n3)c2)c1=O [Example 29, 3-hydroxy-4-((3-(pyridazin-4-yl)-5-(1H-tetrazol-5-yl)phenyl)amino)cyclobut-3-ene-1,2-dione]
Ki (Human GPR35a isoform): 0.74 nM | EC50 (GPR35 [4]): 1.05 nM

CN(C)C(=O)c1ccc(-c2cc(Nc3c(O)c(=O)c3=O)cc(-c3nn[nH]n3)c2)cc1 [Example 30, 3′-((2-hydroxy-3,4-dioxocyclobut-1-en-1-yl)amino)-N,N-dimethyl-5′-(1H-tetrazol-5-yl)-[1,1′-biphenyl]-4-carboxamide]
Ki (Human GPR35a isoform): 5.99 nM | EC50 (GPR35 [4]): 2.64 nM

NC(=O)c1ccc(CNC(=O)c2ccc(-c3cc(Nc4c(O)c(=O)c4=O)cc(-c4nn[nH]n4)c3)cc2)cc1 [Example 31, N-(4-carbamoylbenzyl)-3′-((2-hydroxy-3,4-dioxocyclobut-1-en-1-yl)amino)-5′-(1H-tetrazol-5-yl)-[1,1′-biphenyl]-4-carboxamide]
Ki (Human GPR35a isoform): 1.61 nM | EC50 (GPR35 [4]): 11.3 nM

O=C(O)c1cc(=O)c2ccccc2[nH]1 [kynurenic acid]
potency at the human receptor lower compared to the rat ortholog (GPR35 [7]): at least 100 fold

O=C(O)c1cc(/N=N/c2ccc(S(=O)(=O)Nc3ccccn3)cc2)ccc1O [sulfasalazine]
EC50 (GPR35 [1]): ~3000 nM
